Read-outs that look alike come from different tables or passages of the source.
Columns and labels:
HEK-293 cells = assay: HEK-293 cytotoxicity detection (CellTiter-Glo); format: cell-based; conditions: HEK-293 cells, 72 h incubation, CellTiter-Glo luminescence, IC50 of cell proliferation inhibition, read-out: HEK293
In short: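 Four-parameter logistic fitting of percent inhibition versus concentration gives IC50. Luminescent ATP read-out (CellTiter-Glo) after 72 h compound treatment of HEK-293 cells, 8 doses in 4-fold steps from a 5 mM 500× DMSO stock, final DMSO 0.2%.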

BTK = molecular target: T1, BTK (Homo sapiens, UniProt Q06187); assay: BTK degradation in TMD-8 cells (HTRF assay); format: cell-based; conditions: 6 h treatment, IC50 (DC50) of BTK degradation
T1 construct: High control=Cell group with added DMSO and without compound, indicating microplate readings without BTK degradation; endogenous in cells; host or cells: TMD-8
In short: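 BTK remaining after compound treatment was measured by HTRF (337 nm excitation, 665/620 nm emission) in lysates of TMD-8 cells. Cells were exposed for 6 h to eight 6-fold-spaced concentrations in 0.2% DMSO. DC50 values were obtained from a Hill-equation fit (top, bottom, slope) of % inhibition.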

T1 sequence (Q06187 whole entry): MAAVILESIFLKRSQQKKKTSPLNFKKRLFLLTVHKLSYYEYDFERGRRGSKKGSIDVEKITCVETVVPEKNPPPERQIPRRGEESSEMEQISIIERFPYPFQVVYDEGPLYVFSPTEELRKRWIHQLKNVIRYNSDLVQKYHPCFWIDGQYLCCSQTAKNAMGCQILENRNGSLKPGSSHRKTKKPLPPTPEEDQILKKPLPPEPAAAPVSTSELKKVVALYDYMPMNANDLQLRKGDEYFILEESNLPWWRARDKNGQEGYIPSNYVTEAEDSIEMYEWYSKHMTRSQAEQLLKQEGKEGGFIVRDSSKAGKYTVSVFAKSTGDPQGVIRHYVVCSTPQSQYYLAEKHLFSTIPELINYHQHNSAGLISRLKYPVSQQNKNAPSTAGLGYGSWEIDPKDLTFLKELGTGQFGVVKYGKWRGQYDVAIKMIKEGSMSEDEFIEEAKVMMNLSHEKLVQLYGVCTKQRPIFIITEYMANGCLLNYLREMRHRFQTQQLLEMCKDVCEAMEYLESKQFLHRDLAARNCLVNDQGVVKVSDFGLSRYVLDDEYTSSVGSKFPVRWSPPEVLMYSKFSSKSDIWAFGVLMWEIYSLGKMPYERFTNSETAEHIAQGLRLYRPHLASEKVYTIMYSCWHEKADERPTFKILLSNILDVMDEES

Structure (SMILES) | DC50 (BTK) | IC50 (HEK-293 cells; Homo sapiens) | IC50 (HEK-293 cells)
COc1cc2c(cc1N1CCN(C3CC(c4ccc([C@@H]5CCC(=O)NC5=O)cc4)C3)CC1)[nH]c1ncnc(-c3ccc([C@@H](C)NC(=O)c4noc(C(C)(C)C)n4)c(C)c3F)c12 (stereo partly drawn) [Example 59, 5-(tert-butyl)-N—((R)-1-(4-(7-(4-(3-(4-((S)-2,6-dioxopiperidin-3-yl)phenyl)cyclobutyl)piperazin-1-yl)-6-methoxy-9H-pyrimido[4,5-b]indol-4-yl)-3-fluoro-2-methylphenyl)ethyl)-1,2,4-oxadiazole-3-carboxamide] | 4.55 nM | > 10000 nM | 
COc1cc2c(cc1N1CCN(C3CC(c4ccc([C@H]5CCC(=O)NC5=O)cc4)C3)CC1)[nH]c1ncnc(-c3ccc([C@@H](C)NC(=O)c4noc(C(C)(C)C)n4)c(C)c3F)c12 (stereo partly drawn) [Example 60, 5-(tert-butyl)-N—((R)-1-(4-(7-(4-(3-(4-((R)-2,6-dioxopiperidin-3-yl)phenyl)cyclobutyl)piperazin-1-yl)-6-methoxy-9H-pyrimido[4,5-b]indol-4-yl)-3-fluoro-2-methylphenyl)ethyl)-1,2,4-oxadiazole-3-carboxamide] | 4.97 nM | > 10000 nM | 
COc1cc2c(cc1N1CCN(C3CCN(c4cccc(C5CCC(=O)NC5=O)c4)C3)CC1)[nH]c1ncnc(-c3ccc([C@@H](C)NC(=O)c4noc(C(C)(C)C)n4)c(C)c3F)c12 (stereo partly drawn) [Example 61, 5-(tert-butyl)-N-((1R)-1-(4-(7-(4-(1-(3-(2,6-dioxopiperidin-3-yl)phenyl)pyrrolidin-3-yl)piperazin-1-yl)-6-methoxy-9H-pyrimido[4,5-b]indol-4-yl)-3-fluoro-2-methylphenyl)ethyl)-1,2,4-oxadiazole-3-carboxamide] | 5.52 nM | > 10000 nM | 
COc1cc2c(cc1N1CCN(CC3CCN(c4ccc(N5CCC(=O)NC5=O)cc4)CC3)CC1)[nH]c1ncnc(-c3cc(C)c([C@@H](C)NC(=O)c4nc(C(C)(C)C)no4)cc3F)c12 [Example 62, (R)-3-(tert-butyl)-N-(1-(4-(7-(4-((1-(4-(2,4-dioxotetrahydropyrimidin-1(2H)-yl)phenyl)piperidin-4-yl)methyl)piperazin-1-yl)-6-methoxy-9H-pyrimido[4,5-b]indol-4-yl)-5-fluoro-2-methylphenyl)ethyl)-1,2,4-oxadiazole-5-carboxamide] | 0.414 nM | > 10000 nM | 
Cc1cc(-c2ncnc3[nH]c4cc(N5CCN(C6CC(c7ccc([C@@H]8CCC(=O)NC8=O)cc7)C6)CC5)ccc4c23)ccc1[C@@H](C)NC(=O)c1nc(C2(C)CC2)no1 (stereo partly drawn) [Example 67, N—((R)-1-(4-(7-(4-(3-(4-((S)-2,6-dioxopiperidin-3-yl)phenyl)cyclobutyl)piperazin-1-yl)-9H-pyrimido[4,5-b]indol-4-yl)-2-methylphenyl)ethyl)-3-(1-methylcyclopropyl)-1,2,4-oxadiazole-5-carboxamide] | 1.27 nM | > 10000 nM | 
Cc1cc(-c2ncnc3[nH]c4cc(N5CCN(C6CC(c7ccc([C@@H]8CCC(=O)NC8=O)cc7)C6)CC5)ccc4c23)ccc1[C@@H](C)NC(=O)c1nc(C2(C)CC2)no1 (stereo partly drawn) [Example 68, N—((R)-1-(4-(7-(4-(3-(4-((S)-2,6-dioxopiperidin-3-yl)phenyl)cyclobutyl)piperazin-1-yl)-9H-pyrimido[4,5-b]indol-4-yl)-2-methylphenyl)ethyl)-3-(1-methylcyclopropyl)-1,2,4-oxadiazole-5-carboxamide] | 1.6 nM |  | > 10000 nM
COc1cc2c(cc1N1CCN(Cc3ccc4c(c3)n(C)c(=O)n4C3CCC(=O)NC3=O)CC1)[nH]c1ncnc(-c3ccc([C@@H](C)NC(=O)c4nc(C(C)(C)C)no4)c(C)c3)c12 (stereo partly drawn) [Example 69, 3-(tert-butyl)-N-((1R)-1-(4-(7-(4-((1-(2,6-dioxopiperidin-3-yl)-3-methyl-2-oxo-2,3-dihydro-1H-benzo[d]imidazol-5-yl)methyl)piperazin-1-yl)-6-methoxy-9H-pyrimido[4,5-b]indol-4-yl)-2-methylphenyl)ethyl)-1,2,4-oxadiazole-5-carboxamide] | 0.266 nM | > 10000 nM | 
CC(C)(C)c1noc(C(=O)NCC2CCN(c3ncnc4[nH]c5cc(N6CCN(CC7CCN(c8ccc(N9CCC(=O)NC9=O)cc8)CC7)CC6)ccc5c34)CC2)n1 [Example 70, 3-(tert-butyl)-N-((1-(7-(4-((1-(4-(2,4-dioxotetrahydropyrimidin-1(2H)-yl)phenyl)piperidin-4-yl)methyl)piperazin-1-yl)-9H-pyrimido[4,5-b]indol-4-yl)piperidin-4-yl)methyl)-1,2,4-oxadiazole-5-carboxamide] | 140 nM | 1990 nM | 

The next lines start with results.

DC50 (BTK) | Structure (SMILES) | IC50 (HEK-293 cells; Homo sapiens) | IC50 (HEK-293 cells)
1.87 nM | COc1cc2c(cc1N1CCN(CC3CCN(c4ccc(N5CCC(=O)NC5=O)cc4)CC3)CC1)[nH]c1ncnc(-c3ccc([C@@H](C)NC(=O)c4noc(C(C)(C)C)n4)c(C)c3F)c12 [Example 58, (R)-5-(tert-butyl)-N-(1-(4-(7-(4-((1-(4-(2,4-dioxotetrahydropyrimidin-1(2H)-yl)phenyl)piperidin-4-yl)methyl)piperazin-1-yl)-6-methoxy-9H-pyrimido[4,5-b]indol-4-yl)-3-fluoro-2-methylphenyl)ethyl)-1,2,4-oxadiazole-3-carboxamide] | > 10000 nM | 
6.82 nM | Cc1c([C@@H](C)NC(=O)c2noc(C(C)(C)C)n2)ccc(-c2ncnc3[nH]c4cc(N5CCN(C6CN(c7ccc(N8CCC(=O)NC8=O)cc7)C6)CC5)ccc4c23)c1F [Example 63, (R)-5-(tert-butyl)-N-(1-(4-(7-(4-(1-(4-(2,4-dioxotetrahydropyrimidin-1(2H)-yl)phenyl)azetidin-3-yl)piperazin-1-yl)-9H-pyrimido[4,5-b]indol-4-yl)-3-fluoro-2-methylphenyl)ethyl)-1,2,4-oxadiazole-3-carboxamide] | > 10000 nM | 
3.02 nM | Cc1c([C@@H](C)NC(=O)c2nc(C3(C)CC3)no2)ccc(-c2ncnc3[nH]c4cc(N5CCN(CC6CCN(c7ccc(N8CCC(=O)NC8=O)cc7)CC6)CC5)ccc4c23)c1F [Example 64, (R)—N-(1-(4-(7-(4-((1-(4-(2,4-dioxotetrahydropyrimidin-1(2H)-yl)phenyl)piperidin-4-yl)methyl)piperazin-1-yl)-9H-pyrimido[4,5-b]indol-4-yl)-3-fluoro-2-methylphenyl)ethyl)-3-(1-methylcyclopropyl)-1,2,4-oxadiazole-5-carboxamide] | > 10000 nM | 
4.24 nM | Cc1c([C@@H](C)NC(=O)c2nc(C3(C)CC3)no2)ccc(-c2ncnc3[nH]c4cc(N5CCN(C6CC(c7ccc([C@@H]8CCC(=O)NC8=O)cc7)C6)CC5)ccc4c23)c1F (stereo partly drawn) [Example 65, N—((R)-1-(4-(7-(4-(3-(4-((S)-2,6-dioxopiperidin-3-yl)phenyl)cyclobutyl)piperazin-1-yl)-9H-pyrimido[4,5-b]indol-4-yl)-3-fluoro-2-methylphenyl)ethyl)-3-(1-methylcyclopropyl)-1,2,4-oxadiazole-5-carboxamide] | > 10000 nM | 
4.1 nM | Cc1c([C@@H](C)NC(=O)c2nc(C3(C)CC3)no2)ccc(-c2ncnc3[nH]c4cc(N5CCN(C6CC(c7ccc([C@H]8CCC(=O)NC8=O)cc7)C6)CC5)ccc4c23)c1F (stereo partly drawn) [Example 66, N—((R)-1-(4-(7-(4-(3-(4-((R)-2,6-dioxopiperidin-3-yl)phenyl)cyclobutyl)piperazin-1-yl)-9H-pyrimido[4,5-b]indol-4-yl)-3-fluoro-2-methylphenyl)ethyl)-3-(1-methylcyclopropyl)-1,2,4-oxadiazole-5-carboxamide] | > 10000 nM | 

— patent US20240366770A1, “DEGRADATION OF BRUTON'S TYROSINE KINASE (BTK) BY CONJUGATION OF BTK INHIBITORS WITH E3 LIGASE LIGAND AND METHODS OF USE” (BeiGene Switzerland GmbH, priority 2021, published 2024)
